The values below come from patent US10766882B2, “1,2-naphthoquinone based derivative and method of preparing the same” (YUNGJIN PHARM. CO., LTD., priority 2013, dated 2020).

One experiment concerns Cells. Kind of experiment: Measurement of lactate change amount within cells. The format is cell-based. The note with it: PCA extract of cells, lactate measured from supernatant (Megazyme, K-LATE). A digest of the protocol:
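Cells were extracted in 6% perchloric acid and centrifuged (13,000 rpm, 10 min), and the dried pellet was weighed. The supernatant was neutralised with 1 M KOH, brought up in 0.33 M potassium phosphate pH 7.5 and re-centrifuged. Lactate was measured in this supernatant with a commercial lactate kit.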

Another experiment deals with NQO1 protein (Homo sapiens, UniProt P15559). Kind of experiment: NQO1 activity measurement (cytochrome C reduction). The format is biochemical. To be noted: 5 ng NQO1 protein, 200 μM NADH, 77 μM cytochrome C, 37° C., absorbance 550 nm for 10 minutes.
NQO1 protein, sequence (P15559 whole entry, species assumed): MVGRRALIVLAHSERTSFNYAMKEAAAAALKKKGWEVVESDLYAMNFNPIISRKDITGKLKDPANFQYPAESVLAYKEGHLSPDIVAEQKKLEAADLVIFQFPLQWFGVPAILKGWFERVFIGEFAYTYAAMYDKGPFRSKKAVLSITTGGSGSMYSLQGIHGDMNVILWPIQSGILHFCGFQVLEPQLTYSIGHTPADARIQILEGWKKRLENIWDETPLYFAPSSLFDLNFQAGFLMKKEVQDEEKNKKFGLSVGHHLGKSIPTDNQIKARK
Another experiment relates to C57BL/6J Lep ob/ob mice. Nature of the experiment: Weight loss effects in obese mice (ob/ob). The format is in vivo. To be noted: 100 mg/kg oral, vs 0.1% SLS controls. As for the experimental part: 10 week-old C57BL/6J Lep ob/ob mice having genetic obesity characteristics available from ORIENTBIO were prepared. Two mice were raised in each polycarbonate breeding cage (200 W×260 L×130H (mm), Three-shine) in which temperature was 20 to 24° C., relative humidity was 35 to 65%, illuminance was 150 to 300 lux, night and day were 12 hours, and exhaust was performed at 10 to 15 air changes per hour. As a feed, low fat diet (11.9 kcal % fat, 5053, Labdiet) manufactured by ORIENTBIO was used. The feed was contained in a feeder and free intake was allowed. As drinking water, water, which was contained in a 250 mL polycarbonate based bottle, purified through a filter and a sterilizer was used and free intake was allowed.
The compound according to Example 1 synthesized in the present invention was orally administered to three C57BL/6J Lep ob/ob mice in amounts of 40 mg/kg, 80 mg/kg, and 120 mg/kg, respectively, once every day for two weeks. For administration, a disposable syringe fitted with a sonde for oral administration was used and 10 ml/kg of the compound was orally administered into the stomach. As controls, three C57BL/6J Lep ob/ob mice were administered 0.1% sodium lauryl sulfate (SLS) in an amount of 120 mg/kg in the same manner as described above. After administration, a time-dependent weight increase ratio, weight change, and intake amount were measured and results are illustrated in FIG. 1 below.
Weights of the experimental animals were measured immediately before administration of a test material and seven times a week from an administration initiation day to a test termination day. Increased total weights were calculated by subtracting weights measured on an experiment initiation day from weights measured one day before an experiment termination day. Food intake amounts were calculated by measuring feed supply amounts and remaining amounts twice a week from an initiation day of test material administration to a test termination day for each individual. […]
(§1) Experiments were performed under the same conditions as in Experimental Example 3-1 except that 15 week-old C57BL/6J Lep ob/ob mice having genetic obesity characteristics available from ORIENTBIO were prepared, the compounds according to Examples 5 and 6 were administered to three C57BL/6J Lep ob/ob mice in an amount of 150 mg/kg, 150 mg/kg of 0.1% SLS was administered to each of three C57BL/6J Lep ob/ob mice as controls, and experiments were performed for a total of one week. Weight increase ratios, weight change, and intake amounts depending on administration time were measured and results are illustrated in FIG. 5 below.
as §1, with “that 10” for “that 15”, “Examples 8, 9,” for “Examples 5”, “and 12” for “and 6”, “FIG. 6” for “FIG. 5”
Experiments were performed under the same conditions as in Experimental Example 3-1 except that 6 week-old C57BL/6J Lep ob/ob mice having genetic obesity characteristics available from ORIENTBIO were prepared, the compounds according to Examples 17, 18, 22, and 23 were administered to three C57BL/6J Lep ob/ob mice in an amount of 100 mg/kg, 100 mg/kg of 0.1% SLS was administered to each of three C57BL/6J Lep ob/ob mice as controls, and experiments were performed for a total of one week. Weight increase ratios, weight change, and intake amounts depending on administration time were measured and results are illustrated in FIG. 10 below. […]

[1] abbreviates: Exp. Ex. 3-10, FIG. 13: 6 week-old ob/ob mice, two weeks.
Setting [2] is: Exp. Ex. 3-12, FIG. 15: 6 week-old ob/ob mice, two weeks.
[3] abbreviates: Exp. Ex. 3-11, FIG. 14: 6.5 week-old ob/ob mice, one week.
The mark [4] stands for this setting: Exp. Ex. 3-13, FIG. 16: 6 week-old ob/ob mice, one week.

Take `CC(C)c1nc2c(n1C)C(=O)C(=O)c1ccccc1-2` [Example 35]: in the experiment on Cells, the “Lactate change amount within cells (nmol/mg cell)” value (shortened to “Lactate change amount within cells”) is 8.1 nmol/mg cell. Further, the “NQO1 activity (5 μM, [nmol cytochrome C reduced/min/μg protein])” value on NQO1 protein was 190.3 nmol cytochrome C reduced/min/μg protein. For the same molecule, in the experiment on C57BL/6J Lep ob/ob mice (setting [1]), the intake amount entry is on record as “significantly decreased in some sections”, the weight change result is reported as “significantly decreased in some sections” and the weight increase ratio entry is given as “significantly decreased in some sections”. For the same molecule, in the experiment on C57BL/6J Lep ob/ob mice (setting [2]), the intake amount result was “significantly decreased in some sections”, the weight change entry is “significantly decreased in some sections” and the weight increase ratio entry is “significantly decreased in some sections”.

For the molecule `CCc1nc2c(n1C)C(=O)C(=O)c1ccccc1-2` [Example 38, 2-ethyl-3-methyl-3H-naphtho[2,1-d]imidazole-4,5-dione], the “Lactate change amount within cells” value in the experiment on Cells is 5.2 nmol/mg cell. Moreover, at NQO1 protein, the “NQO1 activity (5 μM, [nmol cytochrome C reduced/min/μg protein])” value is listed as 142.1 nmol cytochrome C reduced/min/μg protein. In the experiment with C57BL/6J Lep ob/ob mice (setting [3]), the intake amount entry is “significantly decreased in some sections”, the weight change entry is “significantly decreased in some sections” and the weight increase ratio result is on record as “significantly decreased in some sections”.

`CCc1nc2c(n1C)C(=O)C(=O)c1cc(F)ccc1-2` [Example 41, 2-ethyl-7-fluoro-3-methyl-3H-naphtho[2,1-d]imidazole-4,5-dione]: in the experiment with Cells, the “Lactate change amount within cells” value was found to be 7.2 nmol/mg cell. Moreover, on NQO1 protein, the “NQO1 activity (5 μM, [nmol cytochrome C reduced/min/μg protein])” value is recorded as 148.4 nmol cytochrome C reduced/min/μg protein. Further, in the experiment on C57BL/6J Lep ob/ob mice (setting [4]), the intake amount entry is reported as “significantly decreased in some sections”, the weight change entry is “significantly decreased in some sections” and the weight increase ratio result is “significantly decreased in some sections”.

Turning to `CCc1nc2c([nH]1)C(=O)C(=O)c1cc(Cl)ccc1-2` [Example 45, 7-chloro-2-ethyl-3H-naphtho[2,1-d]imidazole-4,5-dione], in the experiment with Cells, the “Lactate change amount within cells” value is on record as 5.7 nmol/mg cell. Moreover, at NQO1 protein, the “NQO1 activity (5 μM, [nmol cytochrome C reduced/min/μg protein])” value is 188.6 nmol cytochrome C reduced/min/μg protein. In addition, in the experiment on C57BL/6J Lep ob/ob mice (setting [4]), the intake amount entry is “significantly decreased in some sections”, the weight change entry is “significantly decreased in some sections” and the weight increase ratio entry is “significantly decreased in some sections”.

Consider `Cc1nc2c(n1C)C(=O)C(=O)c1ccccc1-2` [Example 96], for which, in the experiment on Cells, the “Lactate change amount within cells” value stood at 5.7 nmol/mg cell. Besides, at NQO1 protein, the “NQO1 activity (5 μM, [nmol cytochrome C reduced/min/μg protein])” value is 21.4 nmol cytochrome C reduced/min/μg protein. Besides, in the experiment on C57BL/6J Lep ob/ob mice (setting [3]), the intake amount entry is reported as “significantly decreased in some sections”, the weight change result is reported as “significantly decreased in some sections” and the weight increase ratio entry is given as “significantly decreased in some sections”.
